Measured values as given in patent US11447740B2, “Lactic acid bacterium and use thereof” (Sone Farm Co., Ltd., priority 2017, dated 2022).

Biological target: T1, hyaluronidase (Bos taurus, UniProt Q2YDK3)
T1 sequence (Q2YDK3 36-553): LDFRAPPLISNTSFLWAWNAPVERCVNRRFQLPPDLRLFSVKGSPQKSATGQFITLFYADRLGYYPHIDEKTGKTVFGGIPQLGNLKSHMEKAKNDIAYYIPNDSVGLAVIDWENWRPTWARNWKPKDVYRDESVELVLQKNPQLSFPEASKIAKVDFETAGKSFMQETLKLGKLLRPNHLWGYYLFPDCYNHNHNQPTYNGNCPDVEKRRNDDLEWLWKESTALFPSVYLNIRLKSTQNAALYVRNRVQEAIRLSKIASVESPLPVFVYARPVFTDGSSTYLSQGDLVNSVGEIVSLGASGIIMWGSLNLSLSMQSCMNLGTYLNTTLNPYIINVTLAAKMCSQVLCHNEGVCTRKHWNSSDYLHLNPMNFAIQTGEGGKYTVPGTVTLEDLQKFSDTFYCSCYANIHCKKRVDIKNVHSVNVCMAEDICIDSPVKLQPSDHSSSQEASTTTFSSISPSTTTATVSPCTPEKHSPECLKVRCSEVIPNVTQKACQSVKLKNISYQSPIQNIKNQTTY
Test: Hyaluronidase activity inhibition
Assay type: biochemical
Conditions: pH 4.0, 37° C.
Method: 5 μL of a hyaluronidase enzyme solution (MP Biomedicals, 4 mg/mL, 100 mM sodium acetate buffer (pH 4.0)) was added to 10 μL of an aqueous solution containing polysaccharides at an optional concentration, which was prepared from the polysaccharide sample containing the neutral polysaccharide fractions and the acidic polysaccharide fractions, the neutral polysaccharide fractions, and the acidic polysaccharide fractions, which were exopolysaccharides produced by the strain IJH-SONE68 and obtained in Example 4. The resultant mixture was incubated at 37° C. for 20 minutes. Thereafter, to the mixture, 10 μL of an enzyme-activating solution (0.5 mg/ml Compound 48/80 (manufactured by MP Biomedicals)), 3.75 mg CaCl2.2H2O, and 100 mM sodium acetate buffer (pH 4.0)) were added, and incubated again at 37° C. for 20 minutes. Subsequently, to the resultant mixture, 25 μL of a sodium hyaluronate solution (Wako Pure Chemical Industries, 0.8 mg/mL, 100 mM sodium acetate buffer (pH 4.0)) was added, and further reacted at 37° C. for 40 minutes. After the reaction, the reaction was terminated by adding 10 μL of 0.4 M NaOH aqueous solution. […] 40 μL of the reaction solution was mixed with 200 μL of p-DMAB solution (described below), the mixture was reacted at 37° C. for 20 minutes, and the absorbance at 585 nm was then measured. […]

CC1(C)[C@@H](O[C@H]2O[C@H](C(=O)[O-])[C@@H](O)[C@H](O)[C@H]2O[C@@H]2O[C@H](C(=O)[O-])[C@@H](O)[C@H](O)[C@H]2O)CC[C@]2(C)[C@H]3C(=O)C=C4[C@@H]5C[C@@](C)(C(=O)O)CC[C@]5(C)CC[C@@]4(C)[C@]3(C)CC[C@@H]12.[K+].[K+] [Dipotassium glycyrrhizinate]
Hyaluronidase activity inhibition IC50: 530 µg/mL
